Data taken from US20090136570A1, “Taste-Masked Tablets and Granules” (priority 2006, published 2009).

Test: Hygroscopicity, VTI vapor sorption analyzer
Format: physicochemical
Procedure: Hygroscopicity data was obtained on a VTI Symmetrical Vapor Sorption Analyzer Model SGA-1. Data was collected at room temperature from 5-95% relative humidity and back, 5% relative humidity change per step. Equilibrium conditions were 0.01 weight percent change in 5 minutes with a maximum equilibration time of 180 minutes. […] When equilibrated back down to 5% RH, the material returned back to approximately its dry weight.

Q: With Cc1nnc(C(=O)NC(C)(C)c2nc(C(=O)NCc3ccc(F)cc3)c(O)c(=O)n2C)o1 as the compound, how does the “weight increase when equilibrated at 95% RH” value (95% RH at 25° C.) read?
A: 1.8%

Q: And the “XRPD analysis of the material after the hygroscopicity experiment (phase stability)” value (after 5-95% relative humidity cycle at room temperature)?
A: had not changed phases
